Measurements as given in ChEMBL document CHEMBL3784924, “Identification of a 5-[3-phenyl-(2-cyclic-ether)-methylether]-4-aminopyrrolo[2,3-d]pyrimidine series of IGF-1R inhibitors” (Bioorg Med Chem Lett, 2016).
Blank lines part the entries; values can stand above or below the compound they belong to.

Tests used:
Liver microsome [1] = test: Drug metabolism in human liver microsomes assessed as 3-(4-amino-7-((cis)-3-(azetidin-1-ylmethyl)cyclobutyl)-7H-pyrrolo[2,3-d]pyrimidin-5-yl)phenol formation by LC-MS/MS analysis; assay type: ADME
[2] = target: Voltage-gated inwardly rectifying potassium channel KCNH2 (Homo sapiens, UniProt Q12809); test: Inhibition of human ERG by dofetilide binding assay
[3] = target: Phosphatidylinositol 4,5-bisphosphate 3-kinase catalytic subunit beta isoform (Homo sapiens, UniProt P42338); test: Inhibition of PI3K-beta (unknown origin)
[4] = target: Epidermal growth factor receptor (Homo sapiens, UniProt P00533); test: Inhibition of Her1 (unknown origin)
[5] = target: Tyrosine-protein kinase JAK1 (Homo sapiens, UniProt P23458); test: Inhibition of Jak1 (unknown origin)
[6] = target: Phosphatidylinositol 4,5-bisphosphate 3-kinase catalytic subunit alpha isoform (Homo sapiens, UniProt P42336); test: Inhibition of PI3K-alpha (unknown origin)
[7] = target: Insulin-like growth factor 1 receptor (Homo sapiens, UniProt P08069); test: Inhibition of IGF-1 receptor (unknown origin)
[8] = target: Tyrosine-protein kinase Lck (Homo sapiens, UniProt P06239); test: Inhibition of Lck (unknown origin)
[9] = target: Vascular endothelial growth factor receptor 2 (Homo sapiens, UniProt P35968); test: Inhibition of KDR (unknown origin)
Ephrin type-B receptor 4 = target: T1, Ephrin type-B receptor 4 (Homo sapiens, UniProt P54760); test: Inhibition of EphB4 receptor (unknown origin)
T1 sequence (P54760 whole entry): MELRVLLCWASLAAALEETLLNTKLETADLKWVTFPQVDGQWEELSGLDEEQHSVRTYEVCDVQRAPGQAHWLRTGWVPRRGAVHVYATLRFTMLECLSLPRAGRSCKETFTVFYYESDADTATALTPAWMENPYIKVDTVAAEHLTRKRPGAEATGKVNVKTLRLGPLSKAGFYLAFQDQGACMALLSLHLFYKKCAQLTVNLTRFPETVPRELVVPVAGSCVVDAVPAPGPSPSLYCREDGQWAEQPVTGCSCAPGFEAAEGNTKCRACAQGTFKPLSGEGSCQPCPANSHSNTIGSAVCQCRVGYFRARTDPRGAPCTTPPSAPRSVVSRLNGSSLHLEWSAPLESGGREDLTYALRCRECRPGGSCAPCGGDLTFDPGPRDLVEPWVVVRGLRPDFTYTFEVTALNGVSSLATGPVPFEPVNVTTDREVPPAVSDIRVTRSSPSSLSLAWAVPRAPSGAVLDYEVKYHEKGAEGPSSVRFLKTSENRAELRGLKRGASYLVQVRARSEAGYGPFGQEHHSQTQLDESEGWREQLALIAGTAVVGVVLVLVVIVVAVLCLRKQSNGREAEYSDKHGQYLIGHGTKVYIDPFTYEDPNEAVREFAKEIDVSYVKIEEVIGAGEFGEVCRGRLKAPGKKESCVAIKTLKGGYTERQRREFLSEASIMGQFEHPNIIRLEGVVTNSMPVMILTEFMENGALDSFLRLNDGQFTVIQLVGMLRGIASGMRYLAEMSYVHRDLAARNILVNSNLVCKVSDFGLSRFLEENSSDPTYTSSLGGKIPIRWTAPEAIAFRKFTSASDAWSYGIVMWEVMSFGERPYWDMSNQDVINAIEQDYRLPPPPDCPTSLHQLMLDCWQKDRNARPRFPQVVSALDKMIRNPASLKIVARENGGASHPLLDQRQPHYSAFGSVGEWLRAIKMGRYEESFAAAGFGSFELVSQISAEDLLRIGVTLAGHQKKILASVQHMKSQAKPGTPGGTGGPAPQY

Cytochrome P450 3A4 = Cytochrome P450 3A4 (Homo sapiens, UniProt P08684); test: Effect on human CYP3A4 at 10 uM; assay type: ADME
Cytochrome P450 2D6 = Cytochrome P450 2D6 (Homo sapiens, UniProt P10635); test: Effect on human CYP2D6 at 10 uM; assay type: ADME
[10] = target: Proto-oncogene tyrosine-protein kinase receptor Ret (Homo sapiens, UniProt P07949); test: Inhibition of Ret (unknown origin)
[11] = Permeability of compound at >= pH 7 by PAMPA assay; assay type: ADME
Insulin receptor = Insulin receptor (Homo sapiens, UniProt P06213); test: Inhibition of Ins receptor (unknown origin)
[12] = Solubility of compound in water; assay type: physicochemical; conditions: buffer
Cytochrome P450 2C9 = Cytochrome P450 2C9 (Homo sapiens, UniProt P11712); test: Effect on human CYP2C9 at 10 uM; assay type: ADME
Liver microsome [13] = test: Drug level in human liver microsomes treated with NVP-AEW541 by LC-MS/MS analysis; assay type: ADME

Sequence of Insulin-like growth factor 1 receptor (P08069 31-736 limits assumed): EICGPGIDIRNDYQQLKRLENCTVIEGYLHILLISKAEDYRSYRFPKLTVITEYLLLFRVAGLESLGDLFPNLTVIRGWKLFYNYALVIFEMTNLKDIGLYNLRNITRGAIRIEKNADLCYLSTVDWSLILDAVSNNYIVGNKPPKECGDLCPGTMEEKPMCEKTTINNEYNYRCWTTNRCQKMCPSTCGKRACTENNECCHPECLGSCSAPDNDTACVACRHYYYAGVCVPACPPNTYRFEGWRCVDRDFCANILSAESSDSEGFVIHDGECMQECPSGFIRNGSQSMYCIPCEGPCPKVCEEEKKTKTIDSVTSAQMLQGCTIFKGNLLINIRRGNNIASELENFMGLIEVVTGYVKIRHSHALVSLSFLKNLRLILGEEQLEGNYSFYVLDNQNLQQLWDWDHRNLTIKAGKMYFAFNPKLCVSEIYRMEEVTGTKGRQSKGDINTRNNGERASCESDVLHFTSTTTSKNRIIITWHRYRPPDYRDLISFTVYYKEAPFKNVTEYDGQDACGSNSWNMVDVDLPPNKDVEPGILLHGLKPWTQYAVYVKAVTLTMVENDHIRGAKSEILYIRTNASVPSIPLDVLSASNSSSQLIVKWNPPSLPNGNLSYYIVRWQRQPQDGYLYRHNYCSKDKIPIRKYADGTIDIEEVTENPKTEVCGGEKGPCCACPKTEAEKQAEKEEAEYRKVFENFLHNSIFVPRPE
Sequence of Insulin-like growth factor 1 receptor (P08069 741-1367 limits assumed): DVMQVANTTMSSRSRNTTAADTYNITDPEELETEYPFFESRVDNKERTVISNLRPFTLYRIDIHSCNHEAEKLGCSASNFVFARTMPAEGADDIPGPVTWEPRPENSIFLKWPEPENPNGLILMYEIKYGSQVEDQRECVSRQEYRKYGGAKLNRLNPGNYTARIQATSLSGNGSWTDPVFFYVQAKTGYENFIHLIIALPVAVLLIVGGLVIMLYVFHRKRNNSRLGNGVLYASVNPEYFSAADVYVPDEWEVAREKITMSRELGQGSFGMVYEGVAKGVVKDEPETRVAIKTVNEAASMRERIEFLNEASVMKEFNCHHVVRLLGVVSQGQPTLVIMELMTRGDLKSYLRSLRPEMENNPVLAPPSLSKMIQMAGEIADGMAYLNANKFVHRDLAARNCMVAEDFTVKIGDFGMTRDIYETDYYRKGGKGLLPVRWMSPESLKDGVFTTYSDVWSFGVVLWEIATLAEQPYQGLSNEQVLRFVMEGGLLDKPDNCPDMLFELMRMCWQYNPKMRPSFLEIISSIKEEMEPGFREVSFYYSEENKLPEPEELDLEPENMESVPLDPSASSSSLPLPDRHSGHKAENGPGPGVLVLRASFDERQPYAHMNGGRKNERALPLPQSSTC
Sequence of Epidermal growth factor receptor (P00533 whole entry): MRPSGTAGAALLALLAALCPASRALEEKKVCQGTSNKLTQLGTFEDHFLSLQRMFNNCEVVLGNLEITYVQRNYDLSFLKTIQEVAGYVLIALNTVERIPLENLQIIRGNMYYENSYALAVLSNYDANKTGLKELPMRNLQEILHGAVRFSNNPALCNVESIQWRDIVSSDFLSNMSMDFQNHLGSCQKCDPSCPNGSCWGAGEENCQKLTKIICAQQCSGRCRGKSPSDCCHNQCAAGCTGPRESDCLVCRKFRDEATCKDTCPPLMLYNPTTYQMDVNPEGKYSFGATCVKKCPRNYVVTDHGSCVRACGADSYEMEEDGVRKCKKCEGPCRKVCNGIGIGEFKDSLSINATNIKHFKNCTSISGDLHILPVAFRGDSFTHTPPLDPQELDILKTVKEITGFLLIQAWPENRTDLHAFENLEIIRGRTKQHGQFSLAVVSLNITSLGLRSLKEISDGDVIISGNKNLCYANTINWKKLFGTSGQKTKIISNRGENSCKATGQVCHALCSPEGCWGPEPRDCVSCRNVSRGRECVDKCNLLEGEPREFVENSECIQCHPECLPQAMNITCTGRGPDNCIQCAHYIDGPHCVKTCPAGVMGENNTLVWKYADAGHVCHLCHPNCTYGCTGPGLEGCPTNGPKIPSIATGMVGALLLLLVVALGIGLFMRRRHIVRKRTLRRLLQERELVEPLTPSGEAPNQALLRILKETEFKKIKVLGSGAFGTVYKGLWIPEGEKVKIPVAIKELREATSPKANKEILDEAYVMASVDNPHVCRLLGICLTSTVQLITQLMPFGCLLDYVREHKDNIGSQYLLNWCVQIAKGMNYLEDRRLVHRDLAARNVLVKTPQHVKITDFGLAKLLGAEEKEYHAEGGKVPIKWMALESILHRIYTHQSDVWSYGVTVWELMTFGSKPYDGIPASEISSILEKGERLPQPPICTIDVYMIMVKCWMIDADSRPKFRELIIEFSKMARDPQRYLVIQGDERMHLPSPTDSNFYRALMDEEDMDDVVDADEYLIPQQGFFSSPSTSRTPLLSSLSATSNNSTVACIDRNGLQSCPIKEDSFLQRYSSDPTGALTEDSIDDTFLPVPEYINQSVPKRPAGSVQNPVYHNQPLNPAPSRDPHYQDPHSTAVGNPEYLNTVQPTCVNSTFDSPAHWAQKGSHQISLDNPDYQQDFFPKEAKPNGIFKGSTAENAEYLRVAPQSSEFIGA
Sequence of Phosphatidylinositol 4,5-bisphosphate 3-kinase catalytic subunit alpha isoform (P42336 whole entry, canonical isoform): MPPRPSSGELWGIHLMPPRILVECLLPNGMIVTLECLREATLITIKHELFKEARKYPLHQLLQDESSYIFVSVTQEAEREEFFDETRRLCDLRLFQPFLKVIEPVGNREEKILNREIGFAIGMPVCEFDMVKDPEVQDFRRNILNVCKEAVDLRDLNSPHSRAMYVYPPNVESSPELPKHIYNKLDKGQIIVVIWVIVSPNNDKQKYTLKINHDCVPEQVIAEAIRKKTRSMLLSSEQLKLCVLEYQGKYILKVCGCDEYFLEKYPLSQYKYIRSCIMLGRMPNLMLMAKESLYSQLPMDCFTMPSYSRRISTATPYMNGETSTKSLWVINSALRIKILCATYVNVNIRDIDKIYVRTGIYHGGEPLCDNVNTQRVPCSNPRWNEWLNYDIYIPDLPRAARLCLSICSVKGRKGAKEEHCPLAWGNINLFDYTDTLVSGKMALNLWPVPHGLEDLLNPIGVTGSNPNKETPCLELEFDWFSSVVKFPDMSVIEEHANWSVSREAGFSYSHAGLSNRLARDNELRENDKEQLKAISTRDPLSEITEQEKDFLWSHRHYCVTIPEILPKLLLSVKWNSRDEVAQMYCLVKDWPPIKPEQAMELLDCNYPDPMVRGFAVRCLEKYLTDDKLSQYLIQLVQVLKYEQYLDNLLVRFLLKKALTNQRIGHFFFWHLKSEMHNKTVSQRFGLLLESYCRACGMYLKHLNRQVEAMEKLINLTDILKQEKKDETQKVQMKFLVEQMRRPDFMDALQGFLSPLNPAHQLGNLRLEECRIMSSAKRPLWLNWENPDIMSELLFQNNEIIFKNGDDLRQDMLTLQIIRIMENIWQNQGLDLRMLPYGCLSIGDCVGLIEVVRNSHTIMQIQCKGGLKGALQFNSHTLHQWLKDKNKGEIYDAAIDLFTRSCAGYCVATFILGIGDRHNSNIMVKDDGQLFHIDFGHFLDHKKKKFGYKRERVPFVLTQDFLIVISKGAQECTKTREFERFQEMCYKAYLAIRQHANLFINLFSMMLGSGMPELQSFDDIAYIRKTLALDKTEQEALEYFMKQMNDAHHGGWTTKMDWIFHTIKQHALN
Sequence of Phosphatidylinositol 4,5-bisphosphate 3-kinase catalytic subunit beta isoform (P42338 whole entry, canonical isoform): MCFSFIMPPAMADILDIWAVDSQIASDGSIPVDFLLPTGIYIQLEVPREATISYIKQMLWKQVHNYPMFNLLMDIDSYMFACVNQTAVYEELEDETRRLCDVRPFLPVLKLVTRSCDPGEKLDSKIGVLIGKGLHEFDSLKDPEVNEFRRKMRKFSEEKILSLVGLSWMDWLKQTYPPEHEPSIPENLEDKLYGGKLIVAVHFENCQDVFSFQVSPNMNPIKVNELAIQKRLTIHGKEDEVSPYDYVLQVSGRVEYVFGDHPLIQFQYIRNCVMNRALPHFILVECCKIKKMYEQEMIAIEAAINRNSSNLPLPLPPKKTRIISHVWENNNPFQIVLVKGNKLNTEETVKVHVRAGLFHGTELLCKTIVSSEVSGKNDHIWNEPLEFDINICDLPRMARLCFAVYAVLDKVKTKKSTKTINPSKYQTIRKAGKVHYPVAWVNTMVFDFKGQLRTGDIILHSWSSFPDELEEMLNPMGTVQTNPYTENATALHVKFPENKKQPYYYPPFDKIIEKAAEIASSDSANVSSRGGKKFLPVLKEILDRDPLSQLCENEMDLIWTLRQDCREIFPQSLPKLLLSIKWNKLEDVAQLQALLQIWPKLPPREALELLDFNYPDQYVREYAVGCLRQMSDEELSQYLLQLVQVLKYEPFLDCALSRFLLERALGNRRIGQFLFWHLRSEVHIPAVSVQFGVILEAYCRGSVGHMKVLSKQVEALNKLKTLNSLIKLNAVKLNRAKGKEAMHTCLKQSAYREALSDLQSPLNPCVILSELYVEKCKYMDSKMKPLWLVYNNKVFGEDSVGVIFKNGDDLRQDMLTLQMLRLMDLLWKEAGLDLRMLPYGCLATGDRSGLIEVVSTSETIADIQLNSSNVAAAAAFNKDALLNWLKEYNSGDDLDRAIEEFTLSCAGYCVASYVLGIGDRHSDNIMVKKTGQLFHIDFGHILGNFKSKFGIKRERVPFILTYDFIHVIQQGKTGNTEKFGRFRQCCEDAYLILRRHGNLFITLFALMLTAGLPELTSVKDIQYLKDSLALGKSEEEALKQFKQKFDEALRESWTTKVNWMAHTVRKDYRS

Structure (SMILES): Nc1ncnc2c1c(-c1cccc(OCc3ccccc3)c1)cn2[C@H]1C[C@@H](CN2CCC2)C1
Drug metabolism (Liver microsome [1]): metabolite_detected
IC50 [2]: 130 nM
IC50 [3]: > 9 µM
IC50 [4]: > 10 µM
IC50 [5]: > 10 µM
IC50 [6]: > 9 µM

Structure (SMILES): Nc1ncnc2c1c(-c1cccc(OCCOC3CCCC3)c1)cn2[C@H]1C[C@@H](CN2CCC2)C1
IC50 [7]: 490 nM

Structure (SMILES): CC1(C)CC[C@H](COc2cccc(-c3cn([C@H]4C[C@@H](CN5CCC5)C4)c4ncnc(N)c34)c2)O1
IC50 [7]: 60 nM

Structure (SMILES): CCCOCCOc1cccc(-c2cn([C@H]3C[C@@H](CN4CCC4)C3)c3ncnc(N)c23)c1
IC50 [7]: 310 nM

Structure (SMILES): CC(C)CCOCCOc1cccc(-c2cn([C@H]3C[C@@H](CN4CCC4)C3)c3ncnc(N)c23)c1
IC50 [7]: 370 nM

Structure (SMILES): CC(C)OCCOc1cccc(-c2cn([C@H]3C[C@@H](CN4CCC4)C3)c3ncnc(N)c23)c1
IC50 [7]: 260 nM

Structure (SMILES): CC(C)(C)OCCOc1cccc(-c2cn([C@H]3C[C@@H](CN4CCC4)C3)c3ncnc(N)c23)c1
IC50 [7]: 160 nM

Structure (SMILES): CCOCCOc1cccc(-c2cn([C@H]3C[C@@H](CN4CCC4)C3)c3ncnc(N)c23)c1
IC50 [7]: 630 nM

Structure (SMILES): Nc1ncnc2c1c(-c1cccc(O)c1)cn2[C@H]1C[C@@H](CN2CCC2)C1
Drug metabolism (Liver microsome [13]): metabolite_detected

Structure (SMILES): Nc1ncnc2c1c(-c1cccc(OCCO)c1)cn2[C@H]1C[C@@H](CN2CCC2)C1
IC50 [7]: 7900 nM

Structure (SMILES): COCCOc1cccc(-c2cn([C@H]3C[C@@H](CN4CCC4)C3)c3ncnc(N)c23)c1
IC50 [7]: 2000 nM

Structure (SMILES): CC(Oc1cccc(-c2cn([C@H]3C[C@@H](CN4CCC4)C3)c3ncnc(N)c23)c1)c1ccccc1 (mixture of isomers)
IC50 [7]: 3700 nM

Further lines, with some results ahead:

Drug metabolism (Liver microsome [1]): metabolite_notdetected
IC50 [7]: 80 nM
Structure (SMILES): Nc1ncnc2c1c(-c1cccc(OC[C@H]3CCCCO3)c1)cn2[C@H]1C[C@@H](CN2CCC2)C1

IC50 [7]: 840 nM
Structure (SMILES): Nc1ncnc2c1c(-c1cccc(OCC3CCCC3)c1)cn2[C@H]1C[C@@H](CN2CCC2)C1

IC50 [8]: 7.4 µM
IC50 [3]: > 9 µM
IC50 [9]: > 10 µM
IC50 (Ephrin type-B receptor 4): 690 nM
Activity (Cytochrome P450 3A4): Not Active
IC50 [4]: > 10 µM
Activity (Cytochrome P450 2D6): Not Active
IC50 [10]: 970 nM
permeability [11]: permeable
IC50 (Insulin receptor): 100 nM
solubility [12]: soluble
Activity (Cytochrome P450 2C9): Not Active
IC50 [5]: > 10 µM
IC50 [7]: 9 nM
IC50 [6]: > 9 µM
Structure (SMILES): CC1(C)CC[C@@H](COc2cccc(-c3cn([C@H]4C[C@@H](CN5CCC5)C4)c4ncnc(N)c34)c2)O1

IC50 [7]: 110 nM
Structure (SMILES): Nc1ncnc2c1c(-c1cccc(OC[C@H]3CCCO3)c1)cn2[C@H]1C[C@@H](CN2CCC2)C1

IC50 [7]: 1900 nM
Structure (SMILES): Nc1ncnc2c1c(-c1cccc(OCC3CCC3)c1)cn2[C@H]1C[C@@H](CN2CCC2)C1

IC50 [7]: 550 nM
Structure (SMILES): Nc1ncnc2c1c(-c1cccc(OCC3CCCCC3)c1)cn2[C@H]1C[C@@H](CN2CCC2)C1

IC50 [3]: > 9 µM
IC50 [4]: > 10 µM
IC50 [5]: > 10 µM
IC50 [7]: 80 nM
IC50 [6]: > 9 µM
Structure (SMILES): Nc1ncnc2c1c(-c1cccc(OC[C@@H]3CCCO3)c1)cn2[C@H]1C[C@@H](CN2CCC2)C1
IC50 [2]: 3600 nM

IC50 [7]: 130 nM
Structure (SMILES): Nc1ncnc2c1c(-c1cccc(OC[C@@H]3CCCCO3)c1)cn2[C@H]1C[C@@H](CN2CCC2)C1
